row,Structure (SMILES),melting point [°C]
1,CC(C)CCC1(CCc2ccccc2)CC(O)=CC(=O)O1 (stereo unspecified),99 to 100
2,Cn1ncnc1COc1nn2c(-c3ccccc3F)nncc2c1-c1cc(F)ccc1F,164 to 165
3,OC(COCCCl)c1ccc2cc(OCc3ccccc3)ccc2c1 (stereo unspecified),86 to 87.5
4,CN1C(=O)C(c2ccccc2)(C2CCNCC2)N=C1N (stereo unspecified),269 to 271
5,CCOC(=O)N=P(c1ccccc1)(c1ccccc1)c1ccccc1OC,80 to 83
6,CCOP(=O)(CN(Cc1ccncc1)C(=O)Cc1cc(C(C)(C)C)c(O)c(C(C)(C)C)c1)OCC,160 to 162
7,CC(C)Cn1c(=O)n(C)c(=O)c2cc(C(=O)c3cccc4ccccc34)sc21,150
8,O=C(Nc1ccc(N2CCCC2=O)cc1)OCc1ccccc1,174
9,Cc1ccc(C(=O)OCCN(C)C)cc1-n1c(C)cc(OCc2ccccc2CNC(=O)Nc2cc(C(C)(C)C)nn2-c2cccc(OCCO)c2)c(Cl)c1=O,164 to 165
10,CCOc1ccc(-c2cc3ccccc3[nH]2)cc1OC,177
11,COc1cc2cc(COC(C)=O)c(C(=O)OC3OC(CO)C(O)C(O)C3O)c(-c3ccc4c(c3)OCO4)c2cc1OC (stereo unspecified),127 to 130
12,O=C(O)c1ccc(-c2ccc(Cl)cc2)c(O)c1,199
13,COc1ccc(-n2c(CC(=O)O)c(C(=O)O)c3cc(Oc4ccc(C(F)(F)F)cc4)ccc32)cc1,248 to 250
14,Cc1ccc(C=Cc2ccccc2C(=O)O)cc1,80 to 82
15,CN(CCOc1ccc([N+](=O)[O-])cc1F)c1ccccn1,95 to 96
16,Cn1c(C(F)(F)F)cc(=O)n(-c2ccc3snc(CCl)c3c2)c1=O,201 to 203
17,N#CN=C(Nc1cccnc1)NC(NC(=O)c1ccc(Cl)cc1)C(F)(F)F (stereo unspecified),136 to 138
18,CCOC(=O)COc1ccc2c(c1)C(=O)C(Br)CC2 (stereo unspecified),91 to 93
19,CNC(=S)C1(c2cccnc2)OCCCS1 (stereo unspecified),194
20,CS(=O)(=O)Nc1cc2occ(S(C)(=O)=O)c(=O)c2cc1Oc1ccccc1,> 250
21,CC(C)(C)OC(=O)C(ON)c1ccccc1 (stereo unspecified),48.2 to 49.6
22,O=C(O)CN1CCN2c3ccccc3Cc3ccccc3C2C1 (stereo unspecified),162 to 163
23,O=C(Nc1ccc(Br)c(C(F)(F)F)c1)c1cccnc1NCn1ccccc1=O,202 to 205
24,CN1C(=O)C(C(=O)Nc2nccs2)Sc2ccccc21 (stereo unspecified),234 to 235

row,Structure (SMILES),melting point [°C]
1,CC(c1cccc(NC(=O)NC2N=C(c3ccccc3F)c3ccccc3N(CC(=O)N3CC4CCC(CC4)C3)C2=O)c1)S(=O)(=O)O (racemic),> 250
2,O=C(Nc1ccc2cc(CN3CCCC3)cnc2c1)c1ccc(-c2ccccc2)nc1,208 to 210
3,Cc1ccc(S(=O)(=O)N(C)c2ccc(Br)cc2[N+](=O)[O-])cc1,82.5 to 83.5
4,CCOC(=O)C1(C(=O)OCC)N(Cc2ccc(OC)cc2OC)C(=O)CC1(C)O (stereo unspecified),106 to 107
5,CC(O)(CCC#N)c1ccc(Oc2cccc(Cl)c2)cc1 (stereo unspecified),68 to 70
6,CCCC/C=C/C(=O)N(C)c1ccc(S(=O)(=O)NC2CCCCCC2)cc1,114
7,Clc1ccc2[nH]c(=Nc3ccccc3)n3nc(-c4ccco4)nc3c2c1,231 to 233
8,CCOC(=O)c1nc(NC)sc1-c1ccncc1,136 to 138
9,O=C1c2ccccc2-c2c1c(Cl)nc1cc(O)ccc21,> 300
10,CN1CCC(c2c[nH]c3ccc(NC(=O)c4ccc(C#N)cc4)nc23)CC1,129 to 134
11,CC(=O)NC[C@H]1CN(c2ccc(N3CCC(C#N)(CC#N)CC3)c(F)c2)C(=O)O1,222 to 224
12,COC(=O)c1ccc(Cl)c(Cl)c1NS(C)(=O)=O,100 to 102
13,N=c1[nH]c(=O)c2nc[nH]c2c(=O)[nH]1,> 220
14,Cc1ccc2c(N=[N+]=[N-])c(C(=O)O)cnc2n1,198
15,CC(=O)OC1CSC(Oc2cncc(-c3ccc(F)cc3C)c2)C(OC(C)=O)C1OC(C)=O (stereo unspecified),120
16,Cc1cc(-c2nc3ccccc3c(=O)n2-c2ccc(I)cc2)cc(C)c1OCCO,101 to 103
17,Cc1cc(SC2=C(O)CC(CCc3ccco3)(C(C)C)OC2=O)c(C(C)(C)C)cc1CO (stereo unspecified),64 to 110
18,COc1c([N+](=O)[O-])cc(C#N)c(F)c1O,112 to 113
19,CCCc1nc(CC)c(C=O)n1Cc1ccc(-c2ccccc2-c2c(O)c(=O)c2=O)cc1,241 to 245
20,O=C(CCl)Nc1ccc2c(c1NC(=O)Cc1ccc(F)cc1)C(=O)c1ccccc1C2=O,213 to 214
21,O=c1[nH]cnc2c1cnn2CC(O)c1ccccc1 (stereo unspecified),270 to 271
22,Cc1ccc2c(Br)c(F)cc([N+](=O)[O-])c2n1,135 to 137
23,Cc1cc(C2=NOC(c3cc(C(F)(F)F)cc(C(F)(F)F)c3)(C(F)(F)F)C2)ccc1Br (stereo unspecified),108 to 110
24,CC(C)(C)c1cc(NC(=O)Nc2cccc(Cl)c2Cl)c(-c2ccncc2)o1,195 to 198

row,Structure (SMILES),melting point [°C]
1,N#Cc1cccc(-c2nc3sccn3c2-c2ccnc(N[C@@H]3CCCN(S(=O)(=O)c4ccc(Cl)cc4)C3)n2)c1,144 to 146
2,CC(C)c1nc2ccccc2c(-c2ccc(F)cc2)c1/C=C/I,129 to 131
3,O=C(C=NO)Nc1ccc(F)c(F)c1,148 to 150
4,CC(C)N(CCN1C(=O)/C(=N/NC(N)=O)c2cc(F)ccc21)C(C)C,158 to 160
5,C=CCOc1cc(C=O)ccc1O,66 to 67
6,CCCCCCCCCCCCCCNC(=O)c1cnccn1,80 to 81
7,CCCn1c(=O)c2[nH]c(N3CCOCC3)nc2n(CCC)c1=O,251 to 252
8,CCOC(=O)c1cc(CCc2cc3c(s2)-n2c(C)nnc2CN=C3c2ccccc2Cl)ccc1CC(=O)Nc1cccc(/C=C/c2nc(C3CCC3)cs2)c1,118 to 120
9,CC(=O)C1Oc2c(C(C)(C)C)cc(Cl)cc2C1(C)C (stereo unspecified),76 to 77
10,O=C(c1ccccc1)n1c(=O)n(C2CCN(CCCN3c4cccc5cccc(c45)S3(=O)=O)CC2)c2ccccc21,133
11,COC(=O)CCc1cc2cc(Cl)c(Cl)cc2[nH]1,142
12,CN(C1CCN(C2CC2)CC1)S(=O)(=O)c1ccc(Nc2nccc(Nc3ccc(F)cc3)n2)cc1,125 to 128
13,CC(C)(C)OC(=O)NOCC(=O)NNC(=O)c1cc(S(=O)(=O)O)cc(O)c1O,148 to 150
14,N#CCCNC(=O)c1cccc(-c2cccc3nn(Cc4ccccc4)cc23)c1,143 to 144
15,CNC1=NS(=O)N=C1NCCS (stereo unspecified),191 to 193
16,CCOC(=O)c1nnc(C(=O)OCC)nn1,85 to 90
17,NCc1cc2c(N)nccc2o1,142 to 144
18,COC(=O)c1cc2cc(OC)c(OC)cc2c(-c2ccnc(-n3c(=O)ccc4ccccc43)c2)c1C(=O)OC,> 230
19,CCC(CC)c1ccc(Cl)c2nc(Nc3ccc(C)cc3Br)n(CCCCO)c12,115 to 118
20,O=Cc1ccc(Cl)cc1O,47 to 48
21,CC(C)Cn1cnc2c(N)nc3cccc(-c4ccccc4)c3c21,263 to 265
22,CC(=Cc1ccc(O)c(Br)c1)[N+](=O)[O-],122 to 124
23,O=C1NC(=O)C2(C=Cc3cscc32)N1 (stereo unspecified),241 to 243
24,CCCOc1c(OCc2ccccc2)cc([C@H]2CC[C@H](c3cc(OC)c(OC)c(OC)c3)O2)cc1S(=O)(=O)CCO (relative stereo),112 to 113

row,Structure (SMILES),melting point [°C]
1,O=C(O)c1c(Sc2ccccc2)c2ccccc2n1-c1ccc2c(c1)OCO2,182 to 183
2,CN(CC(=O)O)c1cc(Br)ccc1[N+](=O)[O-],152 to 155
3,N#Cc1cscc1C#N,170 to 171
4,Cc1cc(S)n2nc(C(=O)NN)nc2n1,221 to 222
5,O=c1c2c(Cl)cc(Cl)cc2n(Cc2ccccc2)c(=O)n1-c1ccccc1,169 to 174
6,CN(C)C(=O)c1cc2c(c(C(=O)O)c1)OC(c1ccccc1)(c1ccccc1)O2,207 to 208
7,CC(C)(C)OC(=O)CN(C(=O)CN1C(=O)c2ccccc2C1=O)c1ccccc1-c1ccccc1,145
8,CCc1c(CNc2cccc(N)n2)c(CC)c(CNc2cccc(N)n2)c(CC)c1CNc1cccc(N)n1,164 to 165
9,Cn1cncc1C(O)(c1ccc2c(c1)c(-c1cccc(Cl)c1)cc(=O)n2C)c1nccn1C (stereo unspecified),130
10,CCc1cc(-c2ccc(-c3cc[nH]n3)cc2)ccc1OC,164 to 168
11,c1ccc(C(Oc2ccc(-c3nc(COc4ccc(CCCn5ccnc5)cc4)co3)cc2)c2ccccc2)cc1,106 to 107
12,CN1C(=O)C(c2ccccc2)(c2ccncc2)N=C1N (stereo unspecified),154 to 155
13,C#CCc1nc(-c2ccc(C)cc2)oc1C,65 to 68
14,COc1ccc(C2=NN(CCCCOc3ccc(C4=NNC(=O)C4(C)C)c(F)c3F)C(=O)C2(C)C)c2cc(C(F)(F)F)sc12,167 to 168
15,N#Cc1cccc(NC(=O)NCc2cccc3c2C(=O)N(C2CCC(=O)NC2=O)C3=O)c1 (stereo unspecified),228 to 230
16,CCNC(=O)OCCCCCCCCC1CC2=C(C1)C(=O)C(OC)=C(OC)C2=O,85 to 86
17,Cc1ccc2c(c1)C1CN(CCCC(=O)c3ccc(F)cc3)CCC1N2C (stereo unspecified),140 to 145
18,Cc1ccc(-n2c(-c3ccc(-c4ccc(-c5nc6c7ccccc7c7ccccc7c6n5-c5ccc(C)cc5)cc4)cc3)nc3c4ccccc4c4ccccc4c32)cc1,405
19,NC(=O)c1nnn(Cc2ccccc2)c1NC(=O)c1ccccc1,191 to 192
20,CN(C(=O)Nc1ccc2ccccc2c1)c1cccc(-c2ccc(CCC(=O)O)cc2)c1,170 to 171
21,CCn1nc(C(F)(F)F)c(CS(=O)(=O)C2=NOC(C)(C)C2)c1OC(F)F,98 to 100
22,CN(C)c1nn(C(=O)Cl)c(=O)n1C,78 to 80
23,CCCc1c(OCCCOc2c(C(C)=O)ccc(OCC(=O)O)c2CCC)ccc(C(C)=O)c1O,124 to 125
24,CN1CCN(c2cc(Cl)cc3c2c(=O)n(Cc2ccc(F)cc2)c(=O)n3Cc2ccccc2)CC1,110 to 114

# Reference: a melting point compilation (Tetko et al.; mined from patent text by program, amines drawn as free bases though some values may be those of a salt)
